Reference: ChEMBL document CHEMBL6153089, “Design, Synthesis, and Biological Evaluation of Thieno[3,2-d]pyrimidine Derivatives as the First Bifunctional PI3Kδ Isoform Selective/Bromodomain and Extra-Terminal Inhibitors” (J Med Chem, 2025)

Tests used:
[1] = target: T1, Bromodomain-containing protein 4 (Homo sapiens, UniProt O60885); experiment: Inhibition of His-tagged BRD4-BD1 (unknown origin) at 10 nM incubated for 30 mins by Alphascreen assay relative to control
[2] = target: PI3-kinase p110-delta/p85-alpha (Homo sapiens) (UniProt P27986+O00329); experiment: Inhibition of p110delta/p85alpha (unknown origin) at 100 nM incubated for 2 hrs in presence of ATP by ADP-kinaseGlo reagent based assay relative to control; format: protein-complex assay
[3] = target: PI3-kinase p110-delta/p85-alpha (Homo sapiens, UniProt O00329); experiment: Inhibition of p110delta/p85alpha (unknown origin) incubated for 2 hrs in presence of ATP by ADP-kinaseGlo reagent based assay; format: protein-complex assay
PI3-kinase p110-delta/p85-alpha, sequence (P27986 whole entry): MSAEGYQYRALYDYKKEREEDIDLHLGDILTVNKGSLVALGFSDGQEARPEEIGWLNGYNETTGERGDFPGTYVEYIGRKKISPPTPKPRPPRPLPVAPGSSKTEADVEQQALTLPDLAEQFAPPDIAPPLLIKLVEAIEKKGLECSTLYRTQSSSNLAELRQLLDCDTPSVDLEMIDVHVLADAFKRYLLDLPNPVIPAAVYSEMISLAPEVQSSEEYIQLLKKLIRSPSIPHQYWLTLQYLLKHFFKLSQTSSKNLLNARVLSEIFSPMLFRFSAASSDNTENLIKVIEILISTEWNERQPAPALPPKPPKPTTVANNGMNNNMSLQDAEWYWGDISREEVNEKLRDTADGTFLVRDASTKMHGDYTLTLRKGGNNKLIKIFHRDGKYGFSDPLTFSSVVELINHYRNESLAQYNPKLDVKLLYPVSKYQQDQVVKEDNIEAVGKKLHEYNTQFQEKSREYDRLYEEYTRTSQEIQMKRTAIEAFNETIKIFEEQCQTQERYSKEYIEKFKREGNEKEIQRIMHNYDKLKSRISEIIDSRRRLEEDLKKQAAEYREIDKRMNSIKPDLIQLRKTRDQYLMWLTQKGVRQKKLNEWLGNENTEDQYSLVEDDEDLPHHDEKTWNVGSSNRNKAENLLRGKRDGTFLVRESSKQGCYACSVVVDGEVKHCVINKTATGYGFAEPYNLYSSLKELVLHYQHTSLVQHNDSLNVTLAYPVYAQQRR
PI3-kinase p110-delta/p85-alpha, sequence (O00329 whole entry): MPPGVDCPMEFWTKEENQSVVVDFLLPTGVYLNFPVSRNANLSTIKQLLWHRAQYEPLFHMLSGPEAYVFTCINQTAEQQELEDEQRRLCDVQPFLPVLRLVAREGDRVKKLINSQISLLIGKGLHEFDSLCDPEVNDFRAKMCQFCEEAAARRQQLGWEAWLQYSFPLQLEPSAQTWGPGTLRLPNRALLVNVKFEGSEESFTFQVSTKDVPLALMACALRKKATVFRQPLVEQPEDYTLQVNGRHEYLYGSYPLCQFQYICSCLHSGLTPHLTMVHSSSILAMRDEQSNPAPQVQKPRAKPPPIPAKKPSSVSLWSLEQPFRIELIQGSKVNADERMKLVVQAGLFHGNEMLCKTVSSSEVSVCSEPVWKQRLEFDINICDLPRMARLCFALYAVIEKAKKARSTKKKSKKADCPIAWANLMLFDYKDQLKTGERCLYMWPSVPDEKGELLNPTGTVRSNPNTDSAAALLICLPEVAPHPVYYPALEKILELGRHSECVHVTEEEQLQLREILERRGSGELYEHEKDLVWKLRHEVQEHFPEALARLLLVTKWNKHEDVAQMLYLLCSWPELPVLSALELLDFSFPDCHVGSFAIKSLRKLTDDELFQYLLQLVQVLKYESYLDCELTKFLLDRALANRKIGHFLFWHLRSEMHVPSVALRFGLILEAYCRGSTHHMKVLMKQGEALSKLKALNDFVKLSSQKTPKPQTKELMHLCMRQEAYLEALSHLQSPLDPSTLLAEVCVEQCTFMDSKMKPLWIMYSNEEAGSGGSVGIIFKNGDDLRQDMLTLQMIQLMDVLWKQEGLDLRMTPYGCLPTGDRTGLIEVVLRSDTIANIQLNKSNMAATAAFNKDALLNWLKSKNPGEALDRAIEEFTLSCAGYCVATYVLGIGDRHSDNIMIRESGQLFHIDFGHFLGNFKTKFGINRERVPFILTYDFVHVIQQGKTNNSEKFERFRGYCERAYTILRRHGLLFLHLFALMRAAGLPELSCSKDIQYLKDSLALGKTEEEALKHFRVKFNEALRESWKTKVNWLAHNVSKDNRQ

[4] = target: T1, Bromodomain-containing protein 4; experiment: Inhibition of His-tagged BRD4-BD1 (unknown origin) incubated for 30 mins in presence of ATP by Alphascreen assay
SU-DHL-6 [5] = experiment: Antiproliferative against activity human SU-DHL-6 cells assessed as inhibition of cell growth incubated for 72 hrs by Celltiter-luminescence analysis; format: functional, cell-based; conditions: SU-DHL-6, 72 h
SUD4 [6] = experiment: Antiproliferative against activity human SU-DHL-4 cells assessed as inhibition of cell growth incubated for 72 hrs in presence of 10:1 compound:ABBV-75 by Celltiter-luminescence analysis; format: functional, cell-based; conditions: SU-DHL-4, 72 h
SU-DHL-6 [7] = experiment: Antiproliferative against activity human SU-DHL-6 cells assessed as inhibition of cell growth incubated for 72 hrs in presence of 10:1 compound:ABBV-75 by Celltiter-luminescence analysis; format: functional, cell-based; conditions: SU-DHL-6, 72 h
SUD4 [8] = experiment: Antiproliferative against activity human SU-DHL-4 cells assessed as inhibition of cell growth incubated for 72 hrs by Celltiter-luminescence analysis; format: functional, cell-based; conditions: SU-DHL-4, 72 h

| Compound | inhibition [1] | inhibition [2] | further results |
| --- | --- | --- | --- |
| Cn1cc(-c2nc(N3CCCCC3)c3sc(CN4CCN(CC5CC5)CC4)cc3n2)c2cc[nH]c2c1=O | 35% | 0.9% |  |
| Cn1cc(-c2nc(N3CCOCC3)c3sc(CN4CCN(C(=O)CO)CC4)cc3n2)c2cc[nH]c2c1=O | 35.2% | 28.8% |  |
| C[C@H](O)C(=O)N1CCN(Cc2cc3nc(-c4cn(C)c(=O)c5[nH]ccc45)nc(N4CCOCC4)c3s2)CC1 | 39.9% | 33.2% | IC50 [3]: 206 nM; IC50 [4]: 11 nM |
| Cn1cc(-c2nc(N3CCOCC3)c3sc(CN4CCC(O)CC4)cc3n2)c2cc[nH]c2c1=O | 36% | 19.4% |  |
| CNc1cc(-c2nc(N3CCOCC3)c3sc(CN4CCN(CC5CC5)CC4)cc3n2)cn(C)c1=O | 9.1% | 6% |  |
| Fc1ccc2[nH]ccc2c1-c1nc(N2CCOCC2)c2sc(CN3CCN(CC4CC4)CC3)cc2n1 |  |  | IC50 (SU-DHL-6 [5]): 1820 nM; IC50 (SUD4 [6]): 14 nM; IC50 (SU-DHL-6 [7]): 10 nM; IC50 [3]: 23 nM; IC50 (SUD4 [8]): 263 nM |
| C[C@@H](O)C(=O)N1CCN(Cc2cc3nc(-c4cn(C)c(=O)c5[nH]ccc45)nc(N4CCOCC4)c3s2)CC1 | 38.2% | 27.4% |  |
| Cn1cc(-c2nc(N3CCOCC3)c3sc(CN4CCN(C(=O)C(C)(C)O)CC4)cc3n2)c2cc[nH]c2c1=O | 32.6% | 20.1% |  |

The next lines start with results.

| inhibition [1] | inhibition [2] | Compound | further results |
| --- | --- | --- | --- |
| 12.7% | 43.5% | Cn1cc(-c2nc(N3CCOCC3)c3sc(CN4CCN(CC5CC5)CC4)cc3n2)c2cn[nH]c2c1=O |  |
| 32.6% | 25.7% | Cn1cc(-c2nc(N3CCOCC3)c3sc(CN4CCN(CC5CC5)CC4)cc3n2)ccc1=O |  |
| 1.4% | 6% | Cc1c(-c2nc(N3CCOCC3)c3sc(CN4CCN(CC5CC5)CC4)cc3n2)cn(C)c(=O)c1N |  |
